Test results published in US11919887B2, “Substituted tetrahydrofurans as modulators of sodium channels” (Vertex Pharmaceuticals Incorporated, priority 2019, dated 2024).
Like-named read-outs stand apart in the source and are kept apart here.

Target: human Nav 1.8 (Homo sapiens, UniProt Q9Y5Y9)
Test: E-VIPR assay detecting and measuring Nav inhibition (HEK cells expressing truncated human Nav 1.8)
Assay type: cell-based
In short: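 HEK cells expressing truncated human Nav1.8, transduced with KIR2.1 BacMam, were loaded with CC2-DMPE/DiSBAC6(3) FRET dyes and tested under electrical stimulation (E-VIPR). Compounds were run as 11-point 3-fold dilutions, top 300 nM final, 0.625% DMSO, with or without 25% human serum.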

[1] = in the Presence of Human Serum in the E-VIPR Assay, read-out: IC50
[2] = in the Absence of Human Serum in the E-VIPR Assay, read-out: IC50
[3] = in the Presence of Human Serum in the E-VIPR Assay

Sequence of human Nav 1.8 (Q9Y5Y9 whole entry, looked up, the tested form may be a part): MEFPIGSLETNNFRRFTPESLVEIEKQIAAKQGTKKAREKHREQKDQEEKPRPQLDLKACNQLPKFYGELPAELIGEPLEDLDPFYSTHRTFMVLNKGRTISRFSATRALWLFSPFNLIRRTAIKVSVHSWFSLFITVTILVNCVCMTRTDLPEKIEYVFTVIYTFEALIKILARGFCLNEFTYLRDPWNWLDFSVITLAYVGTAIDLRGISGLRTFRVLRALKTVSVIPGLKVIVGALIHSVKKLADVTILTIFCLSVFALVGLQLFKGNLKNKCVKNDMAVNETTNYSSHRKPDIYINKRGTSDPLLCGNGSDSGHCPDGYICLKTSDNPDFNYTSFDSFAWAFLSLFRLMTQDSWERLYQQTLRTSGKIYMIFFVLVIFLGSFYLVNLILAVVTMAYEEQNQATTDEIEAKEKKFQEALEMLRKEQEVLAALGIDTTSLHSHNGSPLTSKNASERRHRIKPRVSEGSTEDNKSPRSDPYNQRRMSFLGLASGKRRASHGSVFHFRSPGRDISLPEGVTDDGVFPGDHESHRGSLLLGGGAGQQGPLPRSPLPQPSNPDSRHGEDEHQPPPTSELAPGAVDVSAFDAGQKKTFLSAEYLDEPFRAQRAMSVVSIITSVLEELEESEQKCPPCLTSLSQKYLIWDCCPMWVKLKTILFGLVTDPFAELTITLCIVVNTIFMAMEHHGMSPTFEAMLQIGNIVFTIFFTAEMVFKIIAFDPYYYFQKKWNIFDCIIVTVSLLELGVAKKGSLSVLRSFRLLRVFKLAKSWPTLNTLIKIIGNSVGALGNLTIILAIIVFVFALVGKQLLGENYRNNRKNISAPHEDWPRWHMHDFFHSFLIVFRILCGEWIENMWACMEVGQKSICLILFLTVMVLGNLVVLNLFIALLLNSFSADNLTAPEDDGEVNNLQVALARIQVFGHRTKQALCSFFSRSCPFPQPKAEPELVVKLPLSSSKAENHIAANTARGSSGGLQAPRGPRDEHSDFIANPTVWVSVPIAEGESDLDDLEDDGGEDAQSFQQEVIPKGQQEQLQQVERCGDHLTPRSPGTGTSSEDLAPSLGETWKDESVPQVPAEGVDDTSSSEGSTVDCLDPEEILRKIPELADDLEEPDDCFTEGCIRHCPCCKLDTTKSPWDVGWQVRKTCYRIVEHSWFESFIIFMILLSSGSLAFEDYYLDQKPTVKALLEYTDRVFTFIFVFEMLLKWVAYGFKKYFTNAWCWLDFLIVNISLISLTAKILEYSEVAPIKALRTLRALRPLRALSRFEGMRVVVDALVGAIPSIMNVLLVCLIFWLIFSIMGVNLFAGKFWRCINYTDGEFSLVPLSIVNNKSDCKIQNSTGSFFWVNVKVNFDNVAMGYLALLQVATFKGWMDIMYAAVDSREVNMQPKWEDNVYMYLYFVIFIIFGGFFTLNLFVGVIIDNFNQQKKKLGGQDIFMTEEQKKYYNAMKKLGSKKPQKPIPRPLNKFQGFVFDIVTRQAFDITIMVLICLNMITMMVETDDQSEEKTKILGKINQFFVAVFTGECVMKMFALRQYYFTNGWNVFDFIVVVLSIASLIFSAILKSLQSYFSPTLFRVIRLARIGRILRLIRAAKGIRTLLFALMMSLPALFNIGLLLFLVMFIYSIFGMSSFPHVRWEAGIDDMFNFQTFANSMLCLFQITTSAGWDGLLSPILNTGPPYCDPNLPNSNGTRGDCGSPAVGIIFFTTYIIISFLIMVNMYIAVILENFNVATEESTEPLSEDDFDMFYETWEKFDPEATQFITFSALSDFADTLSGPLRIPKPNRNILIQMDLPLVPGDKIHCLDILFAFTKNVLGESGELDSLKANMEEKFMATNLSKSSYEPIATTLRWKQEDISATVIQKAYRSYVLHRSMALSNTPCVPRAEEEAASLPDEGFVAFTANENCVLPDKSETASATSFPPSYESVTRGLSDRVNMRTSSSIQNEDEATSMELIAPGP

Compound: CC[C@]1(C(F)(F)F)C[C@@H](c2ccc(F)c(F)c2OC)[C@H](C(=O)Nc2ccnc(C(N)=O)c2)O1 (stereo in doubt) [Compound 64, rel-(2R,3S,5R)-4-[[3-(3,4-difluoro-2-methoxy-phenyl)-5-ethyl-5-(trifluoromethyl)tetrahydrofuran-2-carbonyl]amino]pyridine-2-carboxamide]
- IC50 [1]: 10 to 100 nM

Compound: COc1cc(F)ccc1[C@H]1C[C@@](C)(C(F)(F)F)O[C@@H]1C(=O)Nc1ccnc(C(N)=O)c1 (stereo in doubt) [Compound 67, rel-(2S,3R,5S)-4-[[3-(4-fluoro-2-methoxy-phenyl)-5-methyl-5-(trifluoromethyl)tetrahydrofuran-2-carbonyl]amino]pyridine-2-carboxamide]
- IC50 [1]: > 1000 nM

Compound: COc1cc(F)ccc1[C@@H]1C[C@](C)(C(F)(F)F)O[C@H]1C(=O)Nc1ccnc(C(N)=O)c1 (stereo in doubt) [Compound 68, rel-(2R,3S,5R)-4-[[3-(4-fluoro-2-methoxy-phenyl)-5-methyl-5-(trifluoromethyl)tetrahydrofuran-2-carbonyl]amino]pyridine-2-carboxamide]
- IC50 [1]: 10 to 100 nM

Compound: COc1c([C@@H]2[C@@H](C)[C@@](C)(C(F)F)O[C@H]2C(=O)Nc2ccnc(C(N)=O)c2)ccc(F)c1F (stereo in doubt) [Compound 96, rel-(2R,3S,4R,5S)-4-[[3-(3,4-difluoro-2-methoxy-phenyl)-5-(difluoromethyl)-4,5-dimethyl-tetrahydrofuran-2-carbonyl]amino]pyridine-2-carboxamide]
- IC50 [1]: > 1000 nM

Compound: COc1c([C@@H]2[C@@H](C(=O)Nc3ccnc(C(N)=O)c3)O[C@@](C)(C(F)F)[C@H]2C)ccc(F)c1F (stereo in doubt) [Compound 97, rel-(2S,3R,4S,5R)-4-[[3-(3,4-difluoro-2-methoxy-phenyl)-5-(difluoromethyl)-4,5-dimethyl-tetrahydrofuran-2-carbonyl]amino]pyridine-2-carboxamide]
- IC50 [1]: > 1000 nM

Compound: COc1c([C@@H]2[C@@H](C(=O)Nc3ccnc(C(N)=O)c3)O[C@](C)(C(F)F)[C@@H]2C)ccc(F)c1F (stereo in doubt) [Compound 98, rel-(2S,3R,4R,5S)-4-[[3-(3,4-difluoro-2-methoxy-phenyl)-5-(difluoromethyl)-4,5-dimethyl-tetrahydrofuran-2-carbonyl]amino]pyridine-2-carboxamide]
- IC50 [1]: > 1000 nM

Compound: COc1c([C@H]2[C@H](C(=O)Nc3ccnc(C(N)=O)c3)O[C@@](C)(C(F)F)[C@H]2C)ccc(F)c1F (stereo in doubt) [Compound 99, rel-(2R,3S,4S,5R)-4-[[3-(3,4-difluoro-2-methoxy-phenyl)-5-(difluoromethyl)-4,5-dimethyl-tetrahydrofuran-2-carbonyl]amino]pyridine-2-carboxamide]
- IC50 [1]: > 1000 nM

Compound: COc1c([C@H]2[C@@H](C)[C@@H](C)O[C@@H]2C(=O)Nc2ccnc(C(N)=O)c2)ccc(F)c1F (stereo in doubt) [Compound 107, rel-(2S,3R,4R,5R)-4-[[3-(3,4-difluoro-2-methoxy-phenyl)-4,5-dimethyl-tetrahydrofuran-2-carbonyl]amino]pyridine-2-carboxamide]
- IC50 [1]: > 1000 nM

Compound: COc1c([C@@H]2[C@H](C)[C@H](C)O[C@H]2C(=O)Nc2ccnc(C(N)=O)c2)ccc(F)c1F (stereo in doubt) [Compound 108, rel-(2R,3S,4S,5S)-4-[[3-(3,4-difluoro-2-methoxy-phenyl)-4,5-dimethyl-tetrahydrofuran-2-carbonyl]amino]pyridine-2-carboxamide]
- IC50 [1]: 100 to 1000 nM

Compound: COc1c([C@H]2C[C@@H](C(F)(F)F)O[C@@H]2C(=O)Nc2ccnc(C(N)=O)c2)ccc(F)c1F (stereo in doubt) [Compound 109, rel-(2S,3R,5S)-4-[[3-(3,4-difluoro-2-methoxy-phenyl)-5-(trifluoromethyl)tetrahydrofuran-2-carbonyl]amino]pyridine-2-carboxamide]
- IC50 [1]: > 1000 nM

Compound: COc1c([C@@H]2C[C@H](C(F)(F)F)O[C@H]2C(=O)Nc2ccnc(C(N)=O)c2)ccc(F)c1F (stereo in doubt) [Compound 110, rel-(2R,3S,5R)-4-[[3-(3,4-difluoro-2-methoxy-phenyl)-5-(trifluoromethyl)tetrahydrofuran-2-carbonyl]amino]pyridine-2-carboxamide]
- IC50 [1]: 100 to 1000 nM

Compound: Cc1c([C@@H]2[C@@H](C(=O)Nc3ccnc(C(N)=O)c3)O[C@](C)(C(F)(F)F)[C@@H]2C)ccc(F)c1F (stereo in doubt) [Compound 131, rel-(2S,3R,4R,5S)-4-[[3-(3,4-difluoro-2-methyl-phenyl)-4,5-dimethyl-5-(trifluoromethyl)tetrahydrofuran-2-carbonyl]amino]pyridine-2-carboxamide]
- IC50 [2]: > 1000 nM

Compound: Cc1c([C@H]2[C@H](C(=O)Nc3ccnc(C(N)=O)c3)O[C@@](C)(C(F)(F)F)[C@H]2C)ccc(F)c1F (stereo in doubt) [Compound 132, rel-(2R,3S,4S,5R)-4-[[3-(3,4-difluoro-2-methyl-phenyl)-4,5-dimethyl-5-(trifluoromethyl)tetrahydrofuran-2-carbonyl]amino]pyridine-2-carboxamide]
- IC50 [2]: < 10 nM

Compound: Cc1c([C@@H]2[C@@H](C)[C@@](C)(C(F)(F)F)O[C@H]2C(=O)Nc2ccnc(C(N)=O)c2)ccc(F)c1F (stereo in doubt) [Compound 133, rel-(2R,3S,4R,5S)-4-[[3-(3,4-difluoro-2-methyl-phenyl)-4,5-dimethyl-5-(trifluoromethyl)tetrahydrofuran-2-carbonyl]amino]pyridine-2-carboxamide]
- IC50 [2]: 10 to 100 nM

Compound: Cc1c([C@@H]2[C@@H](C(=O)Nc3ccnc(C(N)=O)c3)O[C@@](C)(C(F)(F)F)[C@H]2C)ccc(F)c1F (stereo in doubt) [Compound 134, rel-(2S,3R,4S,5R)-4-[[3-(3,4-difluoro-2-methyl-phenyl)-4,5-dimethyl-5-(trifluoromethyl)tetrahydrofuran-2-carbonyl]amino]pyridine-2-carboxamide]
- IC50 [2]: 100 to 1000 nM

Compound: COc1nc(C(F)(F)F)ccc1[C@@H]1[C@@H](C(=O)Nc2ccnc(C(N)=O)c2)O[C@](C)(C(F)(F)F)[C@@H]1C (stereo in doubt) [Compound 137, rel-(2S,3R,4R,5S)-4-[[3-[2-methoxy-6-(trifluoromethyl)-3-pyridyl]-4,5-dimethyl-5-(trifluoromethyl)tetrahydrofuran-2-carbonyl]amino]pyridine-2-carboxamide]
- IC50 [1]: > 1000 nM

Compound: COc1nc(C(F)(F)F)ccc1[C@H]1[C@H](C(=O)Nc2ccnc(C(N)=O)c2)O[C@@](C)(C(F)(F)F)[C@H]1C (stereo in doubt) [Compound 138, rel-(2R,3S,4S,5R)-4-[[3-[2-methoxy-6-(trifluoromethyl)-3-pyridyl]-4,5-dimethyl-5-(trifluoromethyl)tetrahydrofuran-2-carbonyl]amino]pyridine-2-carboxamide]
- IC50 [1]: 10 to 100 nM

Compound: COc1nc(C(F)F)ccc1[C@H]1[C@H](C(=O)Nc2ccnc(C(N)=O)c2)O[C@@](C)(C(F)(F)F)[C@H]1C (stereo in doubt) [Compound 140, rel-(2R,3S,4S,5R)-4-[[3-[6-(difluoromethyl)-2-methoxy-3-pyridyl]-4,5-dimethyl-5-(trifluoromethyl)tetrahydrofuran-2-carbonyl]amino]pyridine-2-carboxamide]
- IC50 [2]: 10 to 100 nM

Compound: COc1nc(C(F)F)ccc1[C@@H]1[C@@H](C(=O)Nc2ccnc(C(N)=O)c2)O[C@](C)(C(F)(F)F)[C@@H]1C (stereo in doubt) [Compound 141, rel-(2S,3R,4R,5S)-4-[[3-[6-(difluoromethyl)-2-methoxy-3-pyridyl]-4,5-dimethyl-5-(trifluoromethyl)tetrahydrofuran-2-carbonyl]amino]pyridine-2-carboxamide]
- IC50 [2]: > 1000 nM

Compound: Cc1cnc(C(N)=O)cc1NC(=O)[C@@H]1O[C@@](C)(C(F)(F)F)[C@@H](C)[C@H]1c1ccc(F)c(F)c1OC(F)F (stereo in doubt) [Compound 150, rel-(2R,3S,4S,5R)-4-[[3-[2-(difluoromethoxy)-3,4-difluoro-phenyl]-4,5-dimethyl-5-(trifluoromethyl)tetrahydrofuran-2-carbonyl]amino]-5-methyl-pyridine-2-carboxamide]
- IC50 [1]: > 1000 nM

Compound: Cc1cnc(C(N)=O)cc1NC(=O)[C@H]1O[C@](C)(C(F)(F)F)[C@H](C)[C@@H]1c1ccc(F)c(F)c1OC(F)F (stereo in doubt) [Compound 151, rel-(2S,3R,4R,5S)-4-[[3-[2-(difluoromethoxy)-3,4-difluoro-phenyl]-4,5-dimethyl-5-(trifluoromethyl)tetrahydrofuran-2-carbonyl]amino]-5-methyl-pyridine-2-carboxamide]
- IC50 [1]: 10 to 100 nM

Compound: Cc1c(F)ccc([C@@H]2[C@@H](C(=O)Nc3ccnc(C(N)=O)c3)O[C@](C)(C(F)(F)F)[C@@H]2C)c1OC(F)F (stereo in doubt) [compound 53]
- IC50 [1]: < 10 nM

Compound: COc1c([C@@H]2[C@@H](C(=O)Nc3ccnc(C(N)=O)c3)O[C@](C)(C(F)(F)F)[C@@H]2C)ccc(F)c1F [Compound 6, (2S,3R,4R,5S)-4-[[3-(3,4-difluoro-2-methoxy-phenyl)-4,5-dimethyl-5-(trifluoromethyl)tetrahydrofuran-2-carbonyl]amino]pyridine-2-carboxamide]
- IC50 [3]: > 1000 nM

Compound: COc1c([C@H]2[C@H](C(=O)Nc3ccnc(C(N)=O)c3)O[C@@](C)(C(F)(F)F)[C@H]2C)ccc(F)c1F [Compound 7, (2R,3S,4S,5R)-4-[[3-(3,4-difluoro-2-methoxy-phenyl)-4,5-dimethyl-5-(trifluoromethyl)tetrahydrofuran-2-carbonyl]amino]pyridine-2-carboxamide]
- IC50 [3]: < 10 nM

Compound: CCOc1c([C@@H]2[C@@H](C(=O)Nc3ccnc(C(N)=O)c3)O[C@](C)(C(F)(F)F)[C@@H]2C)ccc(F)c1F [Compound 8, (2S,3R,4R,5S)-4-[[3-(2-ethoxy-3,4-difluoro-phenyl)-4,5-dimethyl-5-(trifluoromethyl)tetrahydrofuran-2-carbonyl]amino]pyridine-2-carboxamide]
- IC50 [1]: > 1000 nM
